Data from ChEMBL document CHEMBL5034018, “LXR-Mediated Regulation of Marine-Derived Piericidins Aggravates High-Cholesterol Diet-Induced Cholesterol Metabolism Disorder in Mice” (J Med Chem, 2021).

Experiments:
[1] = Induction of Cholesterol accumulation in human HepG2 cells assessed as fold increase in LDL-cholesterol level at 10 uM after 48 hrs; assay type: functional
[2] = molecular target: T1, Oxysterols receptor LXR-alpha (Homo sapiens, UniProt Q13133); assay: Binding affinity to full-length human LXRalpha by surface plasmon resonance assay
T1 sequence (Q13133 whole entry): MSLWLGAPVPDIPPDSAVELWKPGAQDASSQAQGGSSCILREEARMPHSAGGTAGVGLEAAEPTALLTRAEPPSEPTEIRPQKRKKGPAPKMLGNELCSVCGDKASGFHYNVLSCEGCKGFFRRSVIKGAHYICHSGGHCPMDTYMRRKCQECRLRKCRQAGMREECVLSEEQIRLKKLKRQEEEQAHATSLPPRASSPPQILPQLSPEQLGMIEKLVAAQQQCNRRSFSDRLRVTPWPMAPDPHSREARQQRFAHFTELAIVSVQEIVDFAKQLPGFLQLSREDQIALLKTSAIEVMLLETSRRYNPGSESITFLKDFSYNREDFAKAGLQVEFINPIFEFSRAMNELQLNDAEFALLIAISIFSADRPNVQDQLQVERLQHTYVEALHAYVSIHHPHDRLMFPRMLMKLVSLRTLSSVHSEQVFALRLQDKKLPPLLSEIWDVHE

[3] = Hepatotoxicity in renal carcinoma xenografted C57BL/6 mouse assessed as fold increase in plasma ALT at 0.8 mg/kg, ip; assay type: toxicity, organism-based; details: in vivo
[4] = Hepatotoxicity in renal carcinoma xenografted C57BL/6 mouse assessed as fold increase in plasma AST at 0.8 mg/kg, ip; assay type: toxicity, organism-based; details: in vivo

For `CC(C)c1c(C(=O)Nc2ccccc2)c(-c2ccccc2)c(-c2ccc(F)cc2)n1CC[C@@H](O)C[C@@H](O)CC(=O)O` [ATORVASTATIN], the “fold change (FC)” value [1] was 2.4.

Work on `C/C=C(\C)C(=O)[C@H](C)/C=C(C)/C=C/C/C(C)=C/Cc1nc(OC)c(OC)c(O)c1C` yielded a Kd [2] of 7.22 µM.

For `CNC(=O)c1cc(Oc2ccc(NC(=O)Nc3ccc(Cl)c(C(F)(F)F)c3)cc2)ccn1` [SORAFENIB], the “fold change (FC)” value [3] was 4.3 and the “fold change (FC)” value [4] was 2.3.

Work on `O=C(O)Cc1cccc(OCCCN(Cc2cccc(C(F)(F)F)c2Cl)CC(c2ccccc2)c2ccccc2)c1` yielded a Kd [2] of 6.97 µM.
